{"source": "patent US20040022788A1", "about": "“Compositions and methods for promoting or inhibiting angiogenesis” (priority 1998, published 2004)", "key": {"[1]": {"biological_target": "T1, purified bovine F1 ATP synthase (Bos taurus, UniProt P00829+P19483)", "T1 construct": "from tissue; host or cells: bovine heart mitochondria", "experiment": "F1 activity assay (ATPase, coupled NADH oxidation at 340 nm)", "assay_type": "biochemical", "conditions": "angiostatin", "description": "FIG. 12 is a bar graph showing the inhibition of purified F1 ATP synthase by angiostatin. Purified F1 ATP synthase activity was measured spectrophotometrically at λ=340 nm by coupling the production of ADP to the oxidation of NADH via the pyruvate kinase and lactate dehydrogenase reaction in which a decrease in the absorbance at λ=340 nm indicates active protein (dark six membered rings). […] Control antibodies had no effect on activity (light circles and squares). Representative data shown, n=3.\nPurification of Bovine Heart F1 ATP Synthase and F1 Activity Assay. Fresh bovine heart mitochondria were obtained as previously described (23) and sonicated to yield sub-mitochondrial particles (24). The F1 portion was separated from membrane-bound FO by chloroform extraction. The aqueous layer was centrifuged at 105,000×g to remove particulate matter before purifying over an S300 gel filtration column. […] ATPase activity was measured spectrophotometrically by monitoring at λ=340 nm by coupling the production of ADP to the oxidation of NADH via pyruvate kinase and lactate dehydrogenase reactions as described in Zheng,& Ramirez, Biochem Biophys Res Commun 261(25):499-503 (1999)."}, "[2]": {"biological_target": "T2, ATP synthase on the surface of HUVEC (Homo sapiens, UniProt P05496+P06576+P25705)", "T2 construct": "endogenous in cells; host or cells: HUVEC (primary human umbilical vein endothelial cells)", "experiment": "Cell-surface ATP generation by bioluminescent luciferase assay", "assay_type": "cell-based", "description": "Cell-surface ATP Assay. […] Cells were treated with (1 μM) angiostatin or (0.1 mg/mL) oligomycin for 1 hr at 37° C. All cells were then incubated with 0.1 Ci ^32P and 0.1 Ci ([…]) [2,8-^3H]-ADP (NEN Life Sciences) for 1 min. Supernatants were removed and centrifuged before assaying for ATP production by thin layer chromatography (TLC) or by firefly luciferase assay. ATP Generation by Bioluminescent Luciferase Assay. […] Louis, Mo.). In this firefly luciferin-luciferase reaction, only ATP is readily detected since the enzymatic reaction of firefly luciferase to oxidize luciferin is specific for ATP relative to all other nucleotides. Samples were injected with the ATP assay mixture and recordings were made in a LuminoskanRS (LabSystems, Franklin, Mass.) over a 10 s period. The response in a given sample or standard was quantified as area under the peak of the response and averaged for duplicate determinations. Data are expressed as picomoles of ATP produced per cell based on standards determined under the same conditions with each experiment. Angiostatin was prepared as described in Sottrup-Jensen, […]., Petersen, T. E. & Magnusson, S. (1978) Progress in Chemical Fibrinolysis and Thrombolysis (Raven Press, New York)."}, "[3]": {"biological_target": "T1, purified bovine F1 ATP synthase", "experiment": "ELISA binding of angiostatin to purified F1 ATP synthase", "conditions": "double-reciprocal plots; 1 μg F1 ATP synthase per well; read-out: apparent dissociation constant Kd(app)", "description": "FIG. 11 is a bar graph showing the binding of angiostatin to purified bovine F1 ATP synthase. ELISA was used to determine concentration-dependent binding of angiostatin to a constant amount of F1 ATP synthase. Each well was coated with 1 μg of F1 ATP synthase prior to addition of […] amounts of angiostatin.\nELISA Binding Studies. Binding studies were performed with purified F1 subunit of bovine ATP synthase ([…]) passively adsorbed onto polyvinylchloride microtiter 96-well flat bottom plates (Dynex Technologies, Inc, Chantilly, Va.) as previously described (22). Briefly, plates were coated with protein in 50 μl of 0.1M Na2CO3, pH9.6 and incubated 2 h at 37° C. Non-specific sites were blocked by incubating with PBS, pH 7.0 containing 1% BSA for 30 min at rt. Binding studies were performed with increasing amounts of angiostatin (0-0.5 mg/ml) added in a […] for 1 h at 37° C. Plates were washed (0.1% Tween20/PBS, pH 7.0) and incubated with anti-human angiostatin antibody (goat IgG) (R&D Systems, Minneapolis, Minn.) (1:200 dil) overnight at 4° C. […] Plates were washed and 150 μl of OPD substrate was added to each well and the reaction stopped with 25 μl of H2SO4 (25%), before monitoring the absorbance at λ=492 nm in a Molecular Devices SpectraMax Plus-384 plate reader. […]"}}, "data": [{"substance": "angiostatin", "values": [{"measurement": "inhibition of purified F1 ATPase activity", "setting": "[1]", "value": "completely inhibited"}, {"measurement": "Percent Inhibition (+/− S.E.M.) of ATP generation", "setting": "[2]; 1 μM, 50 μM ADP", "value": 81, "unit": "%"}, {"measurement": "inhibition of ATP generation with increasing concentrations", "setting": "[2]; increasing concentrations of angiostatin", "value": "dose-dependent manner"}, {"measurement": "Kd", "setting": "[3]", "value": 12, "unit": "nM"}]}]}
